Experimental data: ChEMBL document CHEMBL4396901, “Discovery of Potent and Noncovalent Reversible EGFR Kinase Inhibitors of EGFRL858R/T790M/C797S” (ACS Med Chem Lett, 2019)
Activity calls are given as the source filed them. The calls are words filed in the database; no cut-off is given here.

What was measured:
[1] = tested on: Epidermal growth factor receptor (Homo sapiens), P00533 [L858R,T790M,C797S]; assay: (§1) Inhibition of recombinant human C-terminal His-tagged/N-terminal GST-tagged EGFR (668 to 1210 residues) T790M/L858R/C797S mutant expressed in baculovirus expression system using poly (Glu,Tyr) 4:1 as substrate incubated for 1 hr in presence of ATP by ELISA
Epidermal growth factor receptor (Homo sapiens), P00533 [L858R,T790M,C797S], sequence (P00533 whole entry T790M/C797S/L858R, the tested form may be a part): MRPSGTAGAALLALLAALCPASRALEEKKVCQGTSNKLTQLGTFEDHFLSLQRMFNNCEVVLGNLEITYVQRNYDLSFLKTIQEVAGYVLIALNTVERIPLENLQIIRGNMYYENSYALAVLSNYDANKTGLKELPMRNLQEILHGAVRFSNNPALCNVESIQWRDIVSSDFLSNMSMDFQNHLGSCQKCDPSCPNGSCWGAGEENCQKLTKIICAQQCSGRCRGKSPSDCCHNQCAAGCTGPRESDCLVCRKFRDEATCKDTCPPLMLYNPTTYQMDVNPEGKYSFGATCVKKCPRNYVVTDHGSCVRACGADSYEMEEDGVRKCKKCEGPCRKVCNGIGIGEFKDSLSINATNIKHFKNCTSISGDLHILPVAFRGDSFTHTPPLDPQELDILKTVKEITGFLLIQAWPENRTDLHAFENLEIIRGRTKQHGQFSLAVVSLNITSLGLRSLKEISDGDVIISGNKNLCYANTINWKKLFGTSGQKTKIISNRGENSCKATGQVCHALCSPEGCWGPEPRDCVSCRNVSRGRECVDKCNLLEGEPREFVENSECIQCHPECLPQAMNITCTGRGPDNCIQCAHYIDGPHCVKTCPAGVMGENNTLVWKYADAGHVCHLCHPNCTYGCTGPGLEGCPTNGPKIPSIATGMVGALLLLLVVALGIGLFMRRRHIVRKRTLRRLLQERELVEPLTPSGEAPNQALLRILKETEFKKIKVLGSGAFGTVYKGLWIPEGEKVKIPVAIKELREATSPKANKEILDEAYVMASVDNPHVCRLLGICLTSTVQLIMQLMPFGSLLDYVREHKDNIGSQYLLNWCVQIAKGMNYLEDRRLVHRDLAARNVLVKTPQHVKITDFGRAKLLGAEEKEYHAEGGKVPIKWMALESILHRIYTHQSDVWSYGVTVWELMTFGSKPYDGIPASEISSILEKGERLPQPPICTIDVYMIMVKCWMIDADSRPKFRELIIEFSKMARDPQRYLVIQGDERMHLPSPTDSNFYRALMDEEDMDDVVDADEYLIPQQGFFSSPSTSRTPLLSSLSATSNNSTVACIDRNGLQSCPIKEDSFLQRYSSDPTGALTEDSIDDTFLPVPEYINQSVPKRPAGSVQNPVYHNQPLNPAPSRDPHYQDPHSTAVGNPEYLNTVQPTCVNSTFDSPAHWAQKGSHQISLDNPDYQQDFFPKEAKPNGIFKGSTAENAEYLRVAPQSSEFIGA

[2] = tested on: BaF3; assay: Cytotoxicity against mouse BAF3 cells incubated for 72 hrs by resazurin dye based assay; format: cell-based; conditions: BaF3, 72 h
[3] = biological target: Epidermal growth factor receptor (Homo sapiens, UniProt P00533, C797S/L858R/T790M); assay: as §1
Epidermal growth factor receptor, sequence (P00533 whole entry T790M/C797S/L858R): as the sequence (P00533 whole entry T790M/C797S/L858R, the tested form may be a part) above

SMILES: COc1cc2c(Nc3ccc(NC(=O)CC4Cc5ccccc5C4)cc3F)ncnc2cc1OCC1CCN(C)CC1
- inhibition [1]: inactive

SMILES: COc1cc(N2CCC(N3CCN(C)CC3)CC2)ccc1Nc1ncc(Cl)c(Nc2ccccc2P(C)(C)=O)n1 [BRIGATINIB]
- IC50 [2]: 7.31 µM

SMILES: COc1cc2c(Nc3ccc(NC(=O)C(c4ccccc4)N4Cc5ccccc5C4=O)cc3F)ncnc2cc1OCC1CCN(C)CC1 (stereo not given)
- IC50 [3]: 9.3 nM

SMILES: O=C(Nc1nccs1)C(c1cc(F)ccc1O)N1Cc2ccccc2C1=O (stereo not given)
- IC50 [2]: > 10 µM

SMILES: COc1cc2c(Nc3ccc(NC(=O)Cc4ccccc4)cc3F)ncnc2cc1OCC1CCN(C)CC1
- inhibition [1]: inactive

SMILES: COc1cc2c(Nc3cc(NC(=O)CC4Cc5ccccc5C4)ccc3F)ncnc2cc1OCC1CCN(C)CC1
- inhibition [1]: inactive

SMILES: COc1cc2c(Nc3ccc(NC(=O)C(C4CCCCC4)N4Cc5ccccc5C4=O)cc3F)ncnc2cc1OCC1CCN(C)CC1 (stereo not given)
- IC50 [3]: 180 nM

SMILES: COc1cc2c(Nc3ccc(NC(=O)C(c4ccccc4)c4ccccc4)cc3F)ncnc2cc1OCC1CCN(C)CC1
- inhibition [1]: inactive

SMILES: COc1cc2c(Nc3cc(NC(=O)C(c4ccccc4)N4Cc5ccccc5C4=O)ccc3F)ncnc2cc1OCC1CCN(C)CC1 (stereo not given)
- IC50 [3]: 37.1 nM

SMILES: COc1cc2c(Nc3cc(NC(=O)Cc4ccccc4)ccc3F)ncnc2cc1OCC1CCN(C)CC1
- inhibition [1]: inactive
